Reference: US20230091561A1, “METHODS OF TREATING PRIMARY PROGRESSIVE MULTIPLE SCLEROSIS USING AN INHIBITOR OF BRUTON'S TYROSINE KINASE” (Genentech, Inc., priority 2020, published 2023)
pIC50, pKi: −log10 of the molar value. Read-outs that look alike come from different tables or passages of the source.

Tests used:
[1] = target: RET (Homo sapiens, UniProt P07949); assay: Kinase selectivity IC50, RET
[2] = target: CK1e1 (Homo sapiens, UniProt P49674); assay: Kinase selectivity IC50, CK1e1
[3] = target: LCK (Homo sapiens, UniProt P06239); assay: Kinase selectivity IC50, LCK
[4] = target: MLK2 (Homo sapiens, UniProt Q02779); assay: Kinase selectivity IC50, MLK2
[5] = target: T1, Fgr (Homo sapiens, UniProt P09769); assay: Kinase selectivity IC50, Fgr
[6] = target: MKNK2 (Homo sapiens, UniProt Q9HBH9); assay: Kinase selectivity IC50, MKNK2
[7] = target: BRK (Homo sapiens, UniProt Q13882); assay: Kinase selectivity IC50, BRK
[8] = target: RIPK2 (Homo sapiens, UniProt O43353); assay: Kinase selectivity IC50, RIPK2
[9] = target: FLT3 (Homo sapiens, UniProt P36888); assay: Kinase selectivity IC50, FLT3
[10] = target: T2, CDK8/cycC (Homo sapiens, UniProt P49336); assay: Kinase selectivity IC50, CDK8/cycC; format: biochemical; details: unpublished
T2 construct: purchased

[11] = target: CSK (Homo sapiens, UniProt P41240); assay: Kinase selectivity IC50, CSK
[12] = target: FGFR1 (Homo sapiens, UniProt P11362); assay: Kinase selectivity IC50, FGFR1
[13] = target: T3, Src (Homo sapiens, UniProt P12931); set-up: purchased; details: footnote a (Crawford et al.); cited from earlier work
[14] = target: T1, Fgr; set-up: purchased; details: footnote a (Crawford et al.); cited from earlier work
[15] = target: FRK (Homo sapiens, UniProt P42685); assay: Kinase selectivity IC50, FRK
[16] = target: T4, BMX (Homo sapiens, UniProt P51813); assay: Covalent reaction (kinact/Ki), real-time competition with a fluorescent active site ligand, BMX
[17] = target: YES (Homo sapiens, UniProt P07947); assay: Kinase selectivity IC50, YES
[18] = target: SRM (Homo sapiens, UniProt Q9H3Y6); assay: Kinase selectivity IC50, SRM
[19] = target: HCK (Homo sapiens, UniProt P08631); assay: Kinase selectivity IC50, HCK
[20] = target: LYN (Homo sapiens, UniProt P07948); assay: Kinase selectivity IC50, LYN
[21] = target: TNK2 (Homo sapiens, UniProt Q07912); assay: Kinase selectivity IC50, TNK2
[22] = target: ERBB2 (Homo sapiens, UniProt P04626); assay: Kinase selectivity IC50, ERBB2
[23] = target: BLK (Homo sapiens, UniProt P51451); assay: Kinase selectivity IC50, BLK
[24] = target: TXK (Homo sapiens, UniProt P42681); assay: Kinase selectivity IC50, TXK
[25] = target: T3, Src; assay: Kinase selectivity IC50, Src
[26] = target: T4, BMX; assay: Kinase selectivity IC50, BMX

T1 sequence (P09769 whole entry): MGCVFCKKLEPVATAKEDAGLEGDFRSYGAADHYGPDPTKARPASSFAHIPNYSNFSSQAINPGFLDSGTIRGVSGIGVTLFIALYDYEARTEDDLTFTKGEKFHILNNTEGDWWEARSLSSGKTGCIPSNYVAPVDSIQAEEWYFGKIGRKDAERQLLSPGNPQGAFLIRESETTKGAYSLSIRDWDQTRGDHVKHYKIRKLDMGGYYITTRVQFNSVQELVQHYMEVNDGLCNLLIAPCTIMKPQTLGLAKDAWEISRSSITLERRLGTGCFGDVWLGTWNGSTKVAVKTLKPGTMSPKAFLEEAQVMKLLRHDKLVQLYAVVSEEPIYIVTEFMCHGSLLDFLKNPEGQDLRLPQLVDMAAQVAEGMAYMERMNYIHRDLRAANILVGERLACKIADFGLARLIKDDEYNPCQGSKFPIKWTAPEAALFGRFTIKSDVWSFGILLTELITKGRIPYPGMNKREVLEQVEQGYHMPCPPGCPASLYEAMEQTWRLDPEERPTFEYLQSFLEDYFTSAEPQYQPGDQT
RIPK2, sequence (O43353 whole entry): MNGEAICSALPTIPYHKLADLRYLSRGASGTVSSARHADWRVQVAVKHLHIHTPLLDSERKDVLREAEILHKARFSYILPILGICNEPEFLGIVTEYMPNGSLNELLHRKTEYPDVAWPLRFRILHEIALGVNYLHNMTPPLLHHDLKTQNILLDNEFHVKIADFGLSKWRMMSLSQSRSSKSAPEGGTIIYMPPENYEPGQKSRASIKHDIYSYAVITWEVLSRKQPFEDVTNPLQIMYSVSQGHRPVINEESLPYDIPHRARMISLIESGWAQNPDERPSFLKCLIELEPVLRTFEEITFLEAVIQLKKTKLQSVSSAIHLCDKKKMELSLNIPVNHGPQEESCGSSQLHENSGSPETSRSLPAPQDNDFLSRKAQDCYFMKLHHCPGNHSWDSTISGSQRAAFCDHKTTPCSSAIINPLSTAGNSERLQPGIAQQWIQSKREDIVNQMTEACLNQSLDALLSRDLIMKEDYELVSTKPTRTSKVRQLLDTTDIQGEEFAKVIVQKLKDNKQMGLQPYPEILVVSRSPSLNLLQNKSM
T4 sequence (P51813 whole entry): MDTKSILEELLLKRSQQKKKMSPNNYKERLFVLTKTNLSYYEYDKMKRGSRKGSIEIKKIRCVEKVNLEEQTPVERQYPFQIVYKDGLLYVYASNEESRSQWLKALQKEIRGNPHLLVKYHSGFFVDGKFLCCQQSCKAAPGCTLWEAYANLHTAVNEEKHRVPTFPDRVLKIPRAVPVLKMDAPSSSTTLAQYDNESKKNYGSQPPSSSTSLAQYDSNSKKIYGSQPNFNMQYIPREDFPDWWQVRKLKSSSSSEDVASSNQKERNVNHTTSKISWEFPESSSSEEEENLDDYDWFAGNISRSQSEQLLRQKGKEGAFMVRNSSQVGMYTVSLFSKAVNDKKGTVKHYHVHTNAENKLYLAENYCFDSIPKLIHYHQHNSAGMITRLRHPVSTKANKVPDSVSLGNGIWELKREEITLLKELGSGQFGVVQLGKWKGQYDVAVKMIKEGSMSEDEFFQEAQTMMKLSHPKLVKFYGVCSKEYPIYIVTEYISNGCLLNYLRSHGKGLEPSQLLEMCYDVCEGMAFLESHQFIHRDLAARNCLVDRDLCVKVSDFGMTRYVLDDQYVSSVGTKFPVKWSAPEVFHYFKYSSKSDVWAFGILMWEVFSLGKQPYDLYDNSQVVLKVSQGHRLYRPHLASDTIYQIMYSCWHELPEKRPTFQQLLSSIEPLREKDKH
CSK, sequence (P41240 whole entry): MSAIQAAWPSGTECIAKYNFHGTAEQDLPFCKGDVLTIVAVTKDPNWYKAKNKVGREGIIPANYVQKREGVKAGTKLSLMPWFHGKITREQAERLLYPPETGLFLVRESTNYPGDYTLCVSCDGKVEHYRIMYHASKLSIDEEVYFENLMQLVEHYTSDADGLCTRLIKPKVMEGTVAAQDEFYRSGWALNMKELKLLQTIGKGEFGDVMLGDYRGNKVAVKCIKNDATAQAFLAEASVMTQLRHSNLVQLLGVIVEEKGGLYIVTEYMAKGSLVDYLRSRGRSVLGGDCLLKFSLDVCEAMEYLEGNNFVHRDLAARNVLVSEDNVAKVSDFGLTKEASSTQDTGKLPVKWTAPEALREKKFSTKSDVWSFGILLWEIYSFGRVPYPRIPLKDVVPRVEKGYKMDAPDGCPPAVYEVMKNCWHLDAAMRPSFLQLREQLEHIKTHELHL
BRK, sequence (Q13882 whole entry): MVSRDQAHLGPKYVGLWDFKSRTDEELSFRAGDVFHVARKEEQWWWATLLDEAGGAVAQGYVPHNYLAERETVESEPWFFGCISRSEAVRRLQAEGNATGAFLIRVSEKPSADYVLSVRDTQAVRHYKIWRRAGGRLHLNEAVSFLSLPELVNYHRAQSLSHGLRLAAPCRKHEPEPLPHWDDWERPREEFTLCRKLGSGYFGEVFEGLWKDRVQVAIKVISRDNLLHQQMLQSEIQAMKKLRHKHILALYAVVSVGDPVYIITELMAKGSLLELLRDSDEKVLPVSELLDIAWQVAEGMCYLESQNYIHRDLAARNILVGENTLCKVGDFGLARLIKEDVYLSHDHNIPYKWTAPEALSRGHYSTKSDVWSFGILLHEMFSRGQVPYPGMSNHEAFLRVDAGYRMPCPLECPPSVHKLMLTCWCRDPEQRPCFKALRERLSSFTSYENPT
T3 sequence (P12931 whole entry): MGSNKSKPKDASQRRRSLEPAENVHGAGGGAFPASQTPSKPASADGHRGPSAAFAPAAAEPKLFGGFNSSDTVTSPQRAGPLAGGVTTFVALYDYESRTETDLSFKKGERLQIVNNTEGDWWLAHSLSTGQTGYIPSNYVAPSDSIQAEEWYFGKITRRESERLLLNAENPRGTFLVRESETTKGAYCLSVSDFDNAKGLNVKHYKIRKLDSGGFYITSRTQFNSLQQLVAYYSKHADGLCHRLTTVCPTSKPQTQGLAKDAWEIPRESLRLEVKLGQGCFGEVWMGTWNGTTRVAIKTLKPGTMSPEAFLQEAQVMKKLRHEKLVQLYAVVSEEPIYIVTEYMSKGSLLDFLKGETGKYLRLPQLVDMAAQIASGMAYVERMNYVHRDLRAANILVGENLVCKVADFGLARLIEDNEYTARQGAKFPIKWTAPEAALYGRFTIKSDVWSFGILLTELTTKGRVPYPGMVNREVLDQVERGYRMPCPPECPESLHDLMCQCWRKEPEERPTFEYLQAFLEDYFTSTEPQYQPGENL
CK1e1, sequence (P49674 whole entry): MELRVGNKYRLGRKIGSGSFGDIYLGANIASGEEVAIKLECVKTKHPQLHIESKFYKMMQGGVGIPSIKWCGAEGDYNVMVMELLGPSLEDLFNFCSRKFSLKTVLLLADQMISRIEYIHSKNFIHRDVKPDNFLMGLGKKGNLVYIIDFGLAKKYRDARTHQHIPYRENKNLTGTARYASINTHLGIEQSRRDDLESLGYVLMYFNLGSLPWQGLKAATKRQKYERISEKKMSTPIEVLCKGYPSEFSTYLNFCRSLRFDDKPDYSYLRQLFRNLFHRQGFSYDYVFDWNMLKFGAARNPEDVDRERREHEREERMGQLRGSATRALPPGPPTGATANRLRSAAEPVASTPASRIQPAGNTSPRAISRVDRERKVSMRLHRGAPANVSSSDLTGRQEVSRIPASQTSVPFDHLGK
LYN, sequence (P07948 whole entry): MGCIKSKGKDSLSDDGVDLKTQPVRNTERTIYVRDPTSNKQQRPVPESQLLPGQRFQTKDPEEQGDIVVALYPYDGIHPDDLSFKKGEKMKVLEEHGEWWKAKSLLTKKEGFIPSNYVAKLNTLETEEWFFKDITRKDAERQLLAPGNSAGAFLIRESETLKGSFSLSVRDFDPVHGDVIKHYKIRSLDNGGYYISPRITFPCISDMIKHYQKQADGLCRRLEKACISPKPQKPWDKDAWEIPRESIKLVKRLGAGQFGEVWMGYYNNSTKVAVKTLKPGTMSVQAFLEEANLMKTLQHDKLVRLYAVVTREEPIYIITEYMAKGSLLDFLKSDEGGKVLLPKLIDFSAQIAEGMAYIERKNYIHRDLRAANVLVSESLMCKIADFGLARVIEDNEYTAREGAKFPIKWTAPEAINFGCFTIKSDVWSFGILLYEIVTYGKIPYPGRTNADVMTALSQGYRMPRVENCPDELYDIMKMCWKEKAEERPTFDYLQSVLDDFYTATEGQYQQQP
MKNK2, sequence (Q9HBH9 whole entry): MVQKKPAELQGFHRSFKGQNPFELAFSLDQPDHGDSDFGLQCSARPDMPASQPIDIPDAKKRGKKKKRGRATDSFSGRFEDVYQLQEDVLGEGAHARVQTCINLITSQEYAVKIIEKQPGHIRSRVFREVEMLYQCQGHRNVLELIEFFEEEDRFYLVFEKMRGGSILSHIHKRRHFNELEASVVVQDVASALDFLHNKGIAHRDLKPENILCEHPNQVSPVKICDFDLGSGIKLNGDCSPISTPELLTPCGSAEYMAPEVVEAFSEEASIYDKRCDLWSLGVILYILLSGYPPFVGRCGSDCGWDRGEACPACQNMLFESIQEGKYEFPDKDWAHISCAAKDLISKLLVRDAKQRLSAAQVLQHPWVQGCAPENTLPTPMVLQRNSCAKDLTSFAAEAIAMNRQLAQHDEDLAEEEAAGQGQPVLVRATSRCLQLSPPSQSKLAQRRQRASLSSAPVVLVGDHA

With `C=CC(=O)N1CCC(CNc2ncnc(N)c2-c2ccc(Oc3ccccc3)cc2)CC1` [Evobrutinib] the pIC50 [1] was 5.06, the pIC50 [2] was 5.84 and the pIC50 [3] was 5.42. For the same compound, the pIC50 [4] was 5.40, the pIC50 [5] was 5.63 and the pIC50 [6] was 5.38. The pIC50 [7] was 5.22, the pIC50 [8] was 5.36 and the pIC50 [9] was 5.65. For the same compound, the pIC50 [10] was 5.46, the pIC50 [11] was 5.11 and the pIC50 [12] was 5.38.
In the case of `C[C@H]1CN(C2COC2)CCN1c1ccc(Nc2cc(-c3ccnc(N4CCn5c(cc6c5CC(C)(C)C6)C4=O)c3CO)cn(C)c2=O)nc1` [Fenebrutinib], the pIC50 [13] is given as 6.52 and the pIC50 [14] is given as 6.41.
Work on `C=CC(=O)N1CCC[C@@H](n2c(=O)n(-c3ccc(Oc4ccccc4)cc3)c3c(N)nccc32)C1` [Tolebrutinib] yielded a pIC50 [15] of 6.64, a pKi [16] of 7.38 and a pIC50 [17] of 7.80. For the same compound, the pIC50 [18] was 6.94, the pIC50 [19] was 7.04 and the pIC50 [5] was 7.48. The pIC50 [20] was 6.71, the pIC50 [7] was 7.36 and the pIC50 [8] was 6.90. For the same compound, the pIC50 [21] was 6.07, the pIC50 [22] was 7.60 and the pIC50 [23] was 8.52. For the same compound, the pIC50 [24] was 8.41, the pIC50 [11] was 7.06 and the pIC50 [25] was 7.27. The pIC50 [26] was 8.60.
